Test [1] concerns the target T1, Inhibitor of nuclear factor kappa-B kinase subunit beta (Homo sapiens, UniProt O14920).
T1 sequence (O14920 whole entry): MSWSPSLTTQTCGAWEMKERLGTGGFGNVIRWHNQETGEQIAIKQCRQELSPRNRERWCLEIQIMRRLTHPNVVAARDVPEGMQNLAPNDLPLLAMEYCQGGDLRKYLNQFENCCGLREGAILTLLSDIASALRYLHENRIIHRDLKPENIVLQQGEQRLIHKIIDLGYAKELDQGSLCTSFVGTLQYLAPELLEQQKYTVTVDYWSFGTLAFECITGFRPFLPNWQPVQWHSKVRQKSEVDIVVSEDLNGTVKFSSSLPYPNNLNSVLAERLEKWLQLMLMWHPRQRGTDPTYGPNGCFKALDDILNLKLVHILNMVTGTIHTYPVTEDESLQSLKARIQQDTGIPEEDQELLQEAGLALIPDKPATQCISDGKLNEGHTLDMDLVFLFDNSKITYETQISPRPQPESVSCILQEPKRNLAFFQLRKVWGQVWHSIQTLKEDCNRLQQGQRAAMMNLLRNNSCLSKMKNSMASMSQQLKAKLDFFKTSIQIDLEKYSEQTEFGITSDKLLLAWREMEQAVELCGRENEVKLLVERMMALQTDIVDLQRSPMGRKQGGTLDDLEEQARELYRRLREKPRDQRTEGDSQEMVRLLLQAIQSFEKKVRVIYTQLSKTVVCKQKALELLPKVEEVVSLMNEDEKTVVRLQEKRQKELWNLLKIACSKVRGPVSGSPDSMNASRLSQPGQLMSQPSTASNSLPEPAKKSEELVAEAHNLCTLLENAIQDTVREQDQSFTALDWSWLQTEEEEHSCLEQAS
Description: Inhibition of human recombinant GST-IKKbeta by TR-FRET assay

Test [2] deals with T2, Inhibitor of nuclear factor kappa-B kinase subunit epsilon (Homo sapiens, UniProt Q14164).
T2 sequence (Q14164 whole entry): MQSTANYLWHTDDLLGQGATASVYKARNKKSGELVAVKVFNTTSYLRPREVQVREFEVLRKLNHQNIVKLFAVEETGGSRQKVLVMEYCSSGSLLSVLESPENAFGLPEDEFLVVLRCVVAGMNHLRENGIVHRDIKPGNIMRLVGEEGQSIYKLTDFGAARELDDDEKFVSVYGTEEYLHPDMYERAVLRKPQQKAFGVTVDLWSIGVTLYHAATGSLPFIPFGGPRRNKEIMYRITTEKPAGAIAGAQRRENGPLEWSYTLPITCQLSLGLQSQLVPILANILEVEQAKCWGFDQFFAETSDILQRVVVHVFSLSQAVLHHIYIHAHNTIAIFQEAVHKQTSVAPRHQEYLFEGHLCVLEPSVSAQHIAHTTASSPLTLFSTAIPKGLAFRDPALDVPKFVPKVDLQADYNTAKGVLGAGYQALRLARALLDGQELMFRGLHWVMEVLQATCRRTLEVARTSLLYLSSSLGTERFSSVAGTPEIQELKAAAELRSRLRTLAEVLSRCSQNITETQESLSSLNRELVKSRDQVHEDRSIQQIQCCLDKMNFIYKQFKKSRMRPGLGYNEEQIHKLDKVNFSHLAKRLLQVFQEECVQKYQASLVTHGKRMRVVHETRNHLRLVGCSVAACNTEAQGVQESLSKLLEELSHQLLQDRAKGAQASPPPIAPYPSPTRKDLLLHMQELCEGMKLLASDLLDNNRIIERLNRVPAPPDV
Description: Inhibition of human recombinant FLAG-IKKepsilon by TR-FRET assay

The test system of the next test is PBMC. The test can be described thus: Inhibition of LPS-stimulated TNFalpha release in PBMC. In kind it is functional, cell-based. Particulars: Homo sapiens.
Test [3] can be described thus: Inhibition of LPS-stimulated IL6 release in PBMC. To be noted: Homo sapiens. In kind it is functional.
For a further test, the system named is Fibroblast. Briefly: Inhibition of NF-kappaB translocation in TNF-alpha-induced human lung fibroblast cells. The class given is functional, cell-based.

The source made the active and inactive calls. No cut-off for these calls is given here.

Turning to `NC(=O)c1cc(-c2ccncc2)cc(-c2ccc(S(N)(=O)=O)cc2)c1N`, the IC50 in test [1] was 0.251 µM; in test [2], 1.58 µM.
The corresponding values for `NC(=O)c1cc(-c2ccccc2)cc(-c2ccc(S(=O)(=O)NNC3CC3)cc2)c1N` are 0.316 µM and over 15.8 µM.
`COc1cc2ncn(-c3cc(OCc4ccccc4S(C)(=O)=O)c(C#N)s3)c2cc1OC` [GSK-319347A] showed an IC50 in test [1] of over 15.8 µM.
On to `CNC(=O)c1cc(-c2ccc(F)cc2)cc(-c2ccc(S(C)(=O)=O)cc2)c1N`, for which the IC50 in test [1] was over 15.8 µM.
For `NC(=O)c1cc(-c2ccc(Cl)cc2)cc(-c2ccc(S(N)(=O)=O)cc2)c1N`, the IC50 with PBMC is 0.794 µM; in test [1], 0.1 µM; in test [3] it was 2 µM; in test [2], over 15.8 µM. In addition, in the test on Fibroblast, the result was Active.
As to `NC(=O)c1cc(-c2ccccc2)cc(-c2ccc(S(N)(=O)=O)cc2)c1N`, the figures for the IC50 in test [1] and in test [2] were 0.251 µM and over 15.8 µM, respectively.
With `CN(C)c1cccc(-c2cc(-c3ccccc3)cc(C(N)=O)c2N)c1`, the 50% inhibitory concentration (IC50) in test [1] and in test [2] was over 15.8 µM throughout.
Regarding `NC(=O)c1cc(-c2ccc(F)cc2)cc(-c2ccncc2)c1N` [GSK-620503A], the IC50 in test [1] is 1.58 µM; in test [2], over 15.8 µM.
With `CNS(=O)(=O)c1ccc(-c2cc(-c3ccccc3)cc(C(N)=O)c2O)cc1`, the results for the IC50 in test [1] and in test [2] were 1 µM and over 15.8 µM, respectively.
The corresponding values for `CS(=O)(=O)Nc1ccc(-c2cc(-c3ccccc3)cc(C(N)=O)c2N)cc1` [GSK-586581A] are 1.58 µM and over 15.8 µM.
For `COc1c(C(N)=O)cc(-c2ccc(Cl)cc2)cc1-c1ccc(S(N)(=O)=O)cc1` [GSK-711701A], the IC50 in test [1] is over 15.8 µM.
Turning to `NC(=O)c1cc(-c2ccc(F)cc2)cc(-c2ccc(S(=O)(=O)N3CCCC3)cc2)c1N`, the IC50 in test [1] is 0.631 µM; in test [2], over 15.8 µM.
As to `NCCNNS(=O)(=O)c1ccc(-c2cc(-c3ccccc3)cc(C(N)=O)c2N)cc1`, the IC50 in test [1] was 0.158 µM; in test [2] it was over 15.8 µM.
`CS(=O)(=O)c1ccc(-c2cc(C(N)=O)c(N)c(-c3ccc(S(N)(=O)=O)cc3)c2)cc1`: the half-inhibitory concentration (IC50) in test [1] was 0.158 µM.
As for `NC(=O)c1cc(-c2ccc(Cl)cc2)cc(-c2ccc(S(N)(=O)=O)cc2)c1O`, the IC50 in test [1] is 1.58 µM; in test [2] it was over 15.8 µM.
Turning to `NC(=O)c1cc(-c2ccccc2)cc(-c2cccc(S(N)(=O)=O)c2)c1N`, the IC50 in test [1] was 7.94 µM; in test [2], over 15.8 µM.
Consider `NC(=O)c1cc(-c2ccc(F)cc2)ccc1N`, for which the IC50 in test [1] and in test [2] was over 15.8 µM in each case.
As for `NC(=O)c1cc(-c2ccncc2)cc(-c2ccccc2)c1N` [GSK-625137A], the IC50 in test [1] and in test [2] was 3.98 µM throughout.
On to `CS(=O)(=O)Nc1ccc(-c2cc(-c3ccc(Cl)cc3)cc(C(N)=O)c2N)cc1`, for which the IC50 in test [1] was 1.58 µM; in test [2], over 15.8 µM.
As for `COCCCNNS(=O)(=O)c1ccc(-c2cc(-c3ccccc3)cc(C(N)=O)c2N)cc1`, the half-maximal inhibitory concentration (IC50) was 0.251 µM in test [1] and over 15.8 µM in test [2].
For the compound `COc1c(C(N)=O)cc(-c2ccccc2)cc1-c1ccncc1`, in test [1], the IC50 is over 15.8 µM.
On to `COc1c(C(N)=O)cc(-c2ccncc2)cc1-c1ccccc1`, for which the IC50 in test [1] is over 15.8 µM.
Compound `CS(=O)(=O)c1ccc(-c2cc(C(N)=O)c(N)c(-c3ccc(S(=O)(=O)N4CCCC4)cc3)c2)cc1` showed an IC50 in test [1] of 0.398 µM.
As for `CN(C)CCCNNS(=O)(=O)c1ccc(-c2cc(-c3ccccc3)cc(C(N)=O)c2N)cc1`, the half-inhibitory concentration (IC50) in test [1] was 0.316 µM; in test [2], over 15.8 µM.
For the compound `NC(=O)c1cc(-c2ccccc2)cc(-c2ccc(CS(N)(=O)=O)cc2)c1N`, the IC50 was 3.98 µM in test [1] and over 15.8 µM in test [2].
With `CN(C)S(=O)(=O)c1ccc(-c2cc(-c3ccncc3)cc(C(N)=O)c2O)cc1`, the figures for the IC50 in test [1] and in test [2] were 7.94 µM and over 15.8 µM, respectively.
In turn, `COc1ccc(-c2ccncc2)cc1C(N)=O` [GSK-605714A] came in with an IC50 in test [1] of over 15.8 µM.
Consider `NC(=O)c1cc(-c2ccc(F)cc2)cc(-c2ccc(S(N)(=O)=O)cc2)c1N`, for which the figures for the IC50 in test [1] and in test [2] were 0.2 µM and over 15.8 µM, respectively.
`CNC(=O)c1cc(-c2ccc(F)cc2)cc(-c2ccc(S(=O)(=O)N3CCCC3)cc2)c1N` [GSK-635416A]: the IC50 in test [1] was over 15.8 µM.
For the compound `NC(=O)c1cc(-c2ccccc2)ccc1N`, the half-inhibitory concentration (IC50) was 15.8 µM in test [1] and over 15.8 µM in test [2].
`NC(=O)c1cc(-c2ccccc2)cc(-c2ccc(S(=O)(=O)NNCCCN3CCOCC3)cc2)c1N`: the IC50 in test [1] was 0.316 µM; in test [2], over 15.8 µM.
As for `CS(=O)(=O)Nc1cccc(-c2cc(-c3ccccc3)cc(C(N)=O)c2N)c1`, it took 7.94 µM to reach half-maximal inhibition in test [1] (IC50).
For `NC(=O)c1cc(-c2ccccc2)cc(-c2ccc(S(=O)(=O)NNCCN3CCCC3)cc2)c1N`, the results for the concentration for half-maximal inhibition (IC50) in test [1] and in test [2] were 0.251 µM and over 15.8 µM, respectively.

In general, IC50 refers to the concentration that inhibits the measured activity by half. Low readings indicate inhibition by little substance, high ones a need for much substance.

Source of the values: ChEMBL document CHEMBL1145369, “The discovery of 2-amino-3,5-diarylbenzamide inhibitors of IKK-alpha and IKK-beta kinases” (Bioorg Med Chem Lett, 2007).
